Target: PAFR (Homo sapiens, UniProt P25105)
Assay: PAF Binding Assay (PAFR binding)

PAFR, sequence (P25105 whole entry): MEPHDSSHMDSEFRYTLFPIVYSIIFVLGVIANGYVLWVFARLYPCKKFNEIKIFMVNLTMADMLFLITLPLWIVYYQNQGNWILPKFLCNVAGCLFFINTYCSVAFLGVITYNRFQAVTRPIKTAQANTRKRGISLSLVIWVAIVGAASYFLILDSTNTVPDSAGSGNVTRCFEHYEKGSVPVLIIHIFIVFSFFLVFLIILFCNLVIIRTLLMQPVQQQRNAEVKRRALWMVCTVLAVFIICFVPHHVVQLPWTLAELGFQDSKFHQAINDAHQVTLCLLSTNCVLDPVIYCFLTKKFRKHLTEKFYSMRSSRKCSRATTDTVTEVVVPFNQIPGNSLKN

Compound	IC50 [nM]
O=S(=O)(N[C@H]1CCC[C@@H](n2cnnc2)C1)c1c(C2CC2)cc(-c2noc(C3CC(F)(F)C3)n2)cc1C1CC1 [Compound 2Rc, 2,6-dicyclopropyl-4-[5-(3,3-difluorocyclobutyl)-1,2,4-oxadiazol-3-yl]-N-[(1S,3R)-3-(4H-1,2,4-triazol-4-yl)cyclohexyl]benzenesulfonamide]	2.9
3-ethyl-5-imidazo[1,2-a]pyridin-8-yl-N-[(1S,3R)-3-(4H-1,2,4-triazol-4-yl)cyclohexyl]-5-(trifluoromethyl)benzenesulfonamide [Compound 3Bau]	0.8
O=S(=O)(N[C@H]1CCC[C@@H](n2cnnc2)C1)c1cc(-c2noc(C3CC3)n2)cc(C(F)(F)F)c1 [Compound 3Ah, 3-(5-cyclopropyl-1,2,4-oxadiazol-3-yl)-N-[(1S,3R)-3-(4H-1,2,4-triazol-4-yl)cyclohexyl]-5-(trifluoromethyl)benzenesulfonamide]	7.8
O=S(=O)(N[C@H]1CCC[C@@H](n2cnnc2)C1)c1ccc(-c2noc(C3CCC3)n2)cc1C1CC1 [Compound 2Kf, 4-(5-cyclobutyl-1,2,4-oxadiazol-3-yl)-2-cyclopropyl-N-[(1S,3R)-3-(4H-1,2,4-triazol-4-yl)cyclohexyl]benzenesulfonamide]	2.8
CCc1cc(-c2ccc(C#N)nc2)ccc1S(=O)(=O)N[C@H]1CCC[C@@H](n2cnnc2)C1 [Compound 2Ah, 4-(6-cyanopyridin-3-yl)-2-ethyl-N-[(1S,3R)-3-(4H-1,2,4-triazol-4-yl)cyclohexyl]benzenesulfonamide]	570
O=S(=O)(N[C@H]1CCC[C@@H](n2cnnc2)C1)c1cc(C(F)(F)F)cc(C(F)(F)F)c1 [2 Mb, N-[(1S,3R)-3-(4H-1,2,4-triazol-4-yl)cyclohexyl]-3,5-bis(trifluoromethyl)benzenesulfonamide]	280
O=S(=O)(N[C@H]1CCC[C@@H](n2cnnc2)C1)c1ccc(-c2ccc(OC(F)(F)F)cc2)cc1OC(F)(F)F [Compound 2Bal, N-[(1S,3R)-3-(4H-1,2,4-triazol-4-yl)cyclohexyl]-3,4′-bis(trifluoromethoxy)biphenyl-4-sulfonamide]	15
CCc1cc(-c2ccc(OC(F)(F)F)cc2)ccc1S(=O)(=O)N[C@@H]1C[C@H](n2cnnc2)CC(F)(F)C1 [Compound 2Cal, N-[(1R,5S)-3,3-difluoro-5-(4H-1,2,4-triazol-4-yl)cyclohexyl]-3-ethyl-4′-(trifluoromethoxy)biphenyl-4-sulfonamide]	11
CCc1cc(-c2ccc(C(F)(F)F)cc2C)ccc1S(=O)(=O)N[C@H]1CCC[C@@H](n2cnnc2)C1 [Compound 2Abn, 3-ethyl-2′-methyl-N-[(1S,3R)-3-(4H-1,2,4-triazol-4-yl)cyclohexyl]-4′-(trifluoromethyl)biphenyl-4-sulfonamide]	22
CCc1cc(-c2ccc(OCC(F)(F)F)nc2)ccc1S(=O)(=O)N[C@@H]1C[C@H](n2cnnc2C)CC(F)(F)C1 [Compound 2Cbe, N-[(1R,5S)-3,3-difluoro-5-(3-methyl-4H-1,2,4-triazol-4-yl)cyclohexyl]-2-ethyl-4-[6-(2,2,2-trifluoroethoxy)pyridin-3-yl]benzenesulfonamide]	0.2
O=S(=O)(N[C@H]1CCC[C@@H](n2cnnc2)C1)c1ccc(-c2ccc(OC(F)(F)F)cc2)cc1F [Compound 2Ig, 3-fluoro-N-[(1S,3R)-3-(4H-1,2,4-triazol-4-yl)cyclohexyl]-4′-(trifluoromethoxy)biphenyl-4-sulfonamide]	16
Nc1cnc(-c2cc(C(F)(F)F)cc(S(=O)(=O)N[C@H]3CCC[C@@H](n4cnnc4)C3)c2)cn1 [Compound 3Aw, 3-(5-aminopyrazin-2-yl)-N-[(1S,3R)-3-(4H-1,2,4-triazol-4-yl)cyclohexyl]-5-(trifluoromethyl)benzenesulfonamide]	6.6
CCc1cc(-c2cccc(F)c2)ccc1S(=O)(=O)N[C@H]1CCC[C@@H](n2cnnc2)C1 [2 Am, 3-ethyl-3′-fluoro-N-[(1S,3R)-3-(4H-1,2,4-triazol-4-yl)cyclohexyl]benzenesulfonamide]	33
Cc1nncn1[C@H]1C[C@@H](NS(=O)(=O)c2cc(-c3cccc4cccnc34)cc(C(F)(F)F)c2)CC(F)(F)C1 [Compound 3Ca, N-[(1R,5S)-3,3-difluoro-5-(3-methyl-4H-1,2,4-triazol-4-yl)cyclohexyl]-3-quinolin-8-yl-5-(trifluoromethyl)benzenesulfonamide]	0.4
O=S(=O)(N[C@H]1CCC[C@@H](n2cnnc2)C1)c1cc(-c2cccn3cnnc23)cc(C(F)(F)F)c1 [Compound 3d]	3.1
O=S(=O)(N[C@H]1CCC[C@@H](n2cnnc2)C1)c1cccc(OC(F)(F)F)c1 [Compound 2Mc, N-[(1S,3R)-3-(4H-1,2,4-triazol-4-yl)cyclohexyl]-3-(trifluoromethoxy)benzenesulfonamide]	410
O=S(=O)(N[C@H]1CCC[C@@H](n2cnnc2)C1)c1c(F)cc(-c2noc(C3CCC3)n2)cc1C1CC1 [Compound 2Sb, 4-(5-cyclobutyl-1,2,4-oxadiazol-3-yl)-2-cyclopropyl-6-fluoro-N-[(1S,3R)-3-(4H-1,2,4-triazol-4-yl)cyclohexyl]benzenesulfonamide]	2.6
CCc1cc(-c2ccc(OCC(F)(F)F)nc2)ccc1S(=O)(=O)N[C@@H]1C[C@H](n2cnnc2)CC(F)(F)C1 [Compound 2Cak, N-[(1R,5S)-3,3-difluoro-5-(4H-1,2,4-triazol-4-yl)cyclohexyl]-2-ethyl-4-[6-(2,2,2-trifluoroethoxy)pyridin-3-yl]benzenesulfonamide]	3.1
O=S(=O)(N[C@H]1CCC[C@@H](n2cnnc2)C1)c1ccc(-c2ccc(OCC(F)(F)F)cc2)c(F)c1 [Compound 2Eb, 2-fluoro-N-[(1S,3R)-3-(4H-1,2,4-triazol-4-yl)cyclohexyl]-4′-(2,2,2-trifluoroethoxy)biphenyl-4-sulfonamide]	0.7
O=S(=O)(N[C@H]1CCC[C@@H](n2cnnc2)C1)c1cc(Br)cc(C(F)(F)F)c1 [Compound 2Mi, 3-bromo-N-[(1S,3R)-3-(4H-1,2,4-triazol-4-yl)cyclohexyl]-5-(trifluoromethyl)benzenesulfonamide]	165
O=S(=O)(N[C@H]1CCC[C@@H](n2cnnc2)C1)c1ccc(-c2ccc(OC(F)(F)F)cc2)c(F)c1 [Compound 2Ea, 2-fluoro-N-[(1S,3R)-3-(4H-1,2,4-triazol-4-yl)cyclohexyl]-4′-(trifluoromethoxy)biphenyl-4-sulfonamide]	5.8
CCCCOc1ccc(S(=O)(=O)N[C@@H]2C[C@H](n3cnnc3C)CC(F)(F)C2)cc1 [Compound 2Qw, 4-butoxy-N-[(1R,5S)-3,3-difluoro-5-(3-methyl-4H-1,2,4-triazol-4-yl)cyclohexyl]benzenesulfonamide]	4.2
CCc1cc(OCCC(F)(F)F)ccc1S(=O)(=O)N[C@H]1CCC[C@@H](n2cnnc2)C1 [Compound 2Abk, 2-ethyl-N-[(1S,3R)-3-(4H-1,2,4-triazol-4-yl)cyclohexyl]-4-(3,3,3-trifluoropropoxy)benzenesulfonamide]	22
O=S(=O)(N[C@H]1CCC[C@@H](n2cnnc2)C1)c1cc(-c2ccc3ccc(OCC(F)(F)F)nc3c2)cc(C(F)(F)F)c1 [Compound 3Aag, N-[(1S,3R)-3-(4H-1,2,4-triazol-4-yl)cyclohexyl]-3-[2-(2,2,2-trifluoroethoxy)quinolin-7-yl]-5-(trifluoromethyl)benzenesulfonamide]	4.9
CCc1cc(-c2ccccc2OC)ccc1S(=O)(=O)N[C@H]1CCC[C@@H](n2cnnc2)C1 [Compound 2As, 3-ethyl-2′-methoxy-N-[(1S,3R)-3-(4H-1,2,4-triazol-4-yl)cyclohexyl]biphenyl-4-sulfonamide]	16
CC(F)(F)c1nc(-c2ccc(S(=O)(=O)N[C@H]3CCC[C@@H](n4cnnc4)C3)c(C3CC3)c2)no1 [Compound 2Kc, 2-cyclopropyl-4-[5-(1,1-difluoroethyl)-1,2,4-oxadiazol-3-yl]-N-[(1S,3R)-3-(4H-1,2,4-triazol-4-yl)cyclohexyl]benzenesulfonamide]	9.9
O=S(=O)(N[C@H]1CCC[C@@H](n2cnnc2)C1)c1cc(-c2cncc3ccccc23)cc(C(F)(F)F)c1 [3 Ay, 3-isoquinolin-4-yl-N-[(1S,3R)-3-(4H-1,2,4-triazol-4-yl)cyclohexyl]-5-(trifluoromethyl)benzenesulfonamide]	20
COc1ccc(S(=O)(=O)N[C@H]2CCC[C@@H](n3cnnc3)C2)cc1OC [Compound 2Mx, 3,4-dimethoxy-N-[(1S,3R)-3-(4H-1,2,4-triazol-4-yl)cyclohexyl]benzenesulfonamide]	600
CCc1cc(-c2noc(C3CC3)n2)ccc1S(=O)(=O)N[C@H]1CCC[C@@H](n2cnnc2C2CC2)C1 [Compound 2Ab, 4-(5-cyclopropyl-1,2,4-oxadiazol-3-yl)-2-ethyl-N-[(1S,3R)-3-(3-cycloropyl-4H-1,2,4-triazol-4-yl)cyclohexyl]benzenesulfonamide]	3.2
CCc1ccc(S(=O)(=O)N[C@H]2CCC[C@@H](n3cnnc3)C2)cc1-c1cccnc1OC [Compound 2Mn, 4-ethyl-3-(2-methoxypyridin-3-yl)-N-[(1S,3R)-3-(4H-1,2,4-triazol-4-yl)cyclohexyl]benzenesulfonamide]	63

Source: patent US9029377B2, “Platelet-activating factor receptor antagonists” (Merck Sharp & Dohme Corp., priority 2009, dated 2015)
